Assay results from PubChem BioAssay AID256 (DTP/NCI, 2004).
Values joined by “and” are separate entries in the source; they are usually repeats but may differ in a detail not shown here. Equal entries are not always repeated. Inconclusive results and toxic doses are left out. The calls were made as follows: active = survival T/C of 150% or more; inactive = T/C below 125% in these data.

System: CD2F1 mice, L1210 leukemia ip, survival T/C
Assay: NCI In Vivo Anticancer Drug Screen. Data for tumor model L1210 Leukemia (intraperitoneal) in CD2F1 (CDF1) mice
Conditions: higher = longer survival
In short: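 Transplantable tumor in mice; compound-treated vs vehicle-treated groups. Read-out = treated/control ratio of the measured endpoint.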

[1] = endpoint: mean survival time, dose: 100.0 mg/kg/injection, schedule: Q01DX009 (ip), vehicle: saline
[2] = endpoint: mean survival time, dose: 200.0 mg/kg/injection, schedule: Q01DX009 (ip), vehicle: saline
[3] = endpoint: mean survival time, dose: 400.0 mg/kg/injection, schedule: Q01DX009 (ip), vehicle: saline
[4] = endpoint: mean survival time, dose: 100.0 mg/kg/injection, schedule: Q04DX003 (ip), vehicle: saline
[5] = endpoint: mean survival time, dose: 200.0 mg/kg/injection, schedule: Q04DX003 (ip), vehicle: saline
[6] = endpoint: mean survival time, dose: 400.0 mg/kg/injection, schedule: Q04DX003 (ip), vehicle: saline
[7] = endpoint: mean survival time, dose: 25.0 mg/kg/injection, schedule: Q01DX009 (ip), vehicle: other
[8] = endpoint: mean survival time, dose: 50.0 mg/kg/injection, schedule: Q01DX009 (ip), vehicle: other
[9] = endpoint: mean survival time, dose: 100.0 mg/kg/injection, schedule: Q01DX009 (ip), vehicle: other
[10] = endpoint: mean survival time, dose: 50.0 mg/kg/injection, schedule: Q01DX009 (ip), vehicle: saline with Tween-80
[11] = endpoint: mean survival time, dose: 100.0 mg/kg/injection, schedule: Q01DX009 (ip), vehicle: saline with Tween-80
[12] = endpoint: mean survival time, dose: 100.0 mg/kg/injection, schedule: Q04DX003 (ip), vehicle: saline with Tween-80
[13] = endpoint: mean survival time, dose: 200.0 mg/kg/injection, schedule: Q01DX009 (ip), vehicle: saline with Tween-80
[14] = endpoint: mean survival time, dose: 200.0 mg/kg/injection, schedule: Q04DX003 (ip), vehicle: saline with Tween-80
[15] = endpoint: mean survival time, dose: 400.0 mg/kg/injection, schedule: Q04DX003 (ip), vehicle: saline with Tween-80
[16] = endpoint: mean survival time, dose: 100.0 mg/kg/injection, schedule: Q04DX002 (ip), vehicle: saline with Tween-80
[17] = endpoint: mean survival time, dose: 200.0 mg/kg/injection, schedule: Q04DX002 (ip), vehicle: saline with Tween-80
[18] = endpoint: mean survival time, dose: 400.0 mg/kg/injection, schedule: Q04DX002 (ip), vehicle: saline with Tween-80
[19] = endpoint: mean survival time, dose: 400.0 mg/kg/injection, schedule: Q01DX009 (ip), vehicle: saline with Tween-80
[20] = endpoint: mean survival time, dose: 12.5 mg/kg/injection, schedule: Q01DX005 (ip), vehicle: distilled water + Tween-80
[21] = endpoint: mean survival time, dose: 25.0 mg/kg/injection, schedule: Q01DX005 (ip), vehicle: distilled water + Tween-80
[22] = endpoint: mean survival time, dose: 50.0 mg/kg/injection, schedule: Q01DX005 (ip), vehicle: distilled water + Tween-80
[23] = endpoint: mean survival time, dose: 100.0 mg/kg/injection, schedule: Q01DX005 (ip), vehicle: distilled water + Tween-80

Measured: T/C

O=C(O)CN(CC(=O)O)C1CCCCC1N(CC(=O)O)CC(=O)O.[Cl][Pt+2][Cl] (stereo not drawn)
inactive: endpoint: median survival time, dose: 10.0 mg/kg/injection, schedule: Q04DX003 (ip), vehicle: saline 96 % of control | endpoint: median survival time, dose: 20.0 mg/kg/injection, schedule: Q04DX003 (ip), vehicle: saline 106 % of control | endpoint: median survival time, dose: 40.0 mg/kg/injection, schedule: Q04DX003 (ip), vehicle: saline 103 % of control and 104 % of control | endpoint: median survival time, dose: 80.0 mg/kg/injection, schedule: Q04DX003 (ip), vehicle: saline 106 % of control and 109 % of control

Cc1ccn(C)c(=O)c1
inactive: [1] 103 % of control | [2] 104 % of control | [3] 101 % of control

CCc1c2cc(OC)c(OC)cc2cc2c3cc(OC)c(OC)cc3cc[n+]12 (tested in a mixture with another compound)
inactive: endpoint: mean survival time, dose: 14.6 mg/kg/injection, schedule: Q01DX009 (ip), vehicle: saline with Tween-80 120 % of control | endpoint: mean survival time, dose: 33.0 mg/kg/injection, schedule: Q01DX009 (ip), vehicle: saline with Tween-80 117 % of control | endpoint: mean survival time, dose: 50.0 mg/kg/injection, schedule: Q01DX009 (ip), vehicle: saline 122 % of control | endpoint: mean survival time, dose: 50.0 mg/kg/injection, schedule: Q04DX003 (ip), vehicle: saline 122 % of control | [1] 104 % of control | [4] 121 % of control and 123 % of control | [5] 101 % of control | [6] 121 % of control and 98 % of control

O=[N+]([O-])c1ccc2ncccc2c1
inactive: [7] 101 % of control | [8] 105 % of control | [9] 104 % of control

O=C(O)CCCC(=O)C1CCCCC1
inactive: [10] 103 % of control | [11] 103 % of control | [12] 95 % of control | [13] 98 % of control | [14] 90 % of control

Nc1ccc(OCCc2c(N)nc(N)nc2N)cc1
inactive: endpoint: mean survival time, dose: 100.0 mg/kg/injection, schedule: Q04DX002 (ip), vehicle: Klucel (hydroxypropylcellulose) (HPC) 98 % of control | endpoint: mean survival time, dose: 200.0 mg/kg/injection, schedule: Q04DX002 (ip), vehicle: Klucel (hydroxypropylcellulose) (HPC) 102 % of control | endpoint: mean survival time, dose: 400.0 mg/kg/injection, schedule: Q04DX002 (ip), vehicle: Klucel (hydroxypropylcellulose) (HPC) 98 % of control

CCOC(CN(N=O)c1ccccc1C(C)C)OCC
inactive: [11] 98 % of control | [12] 103 % of control | [13] 93 % of control | [14] 98 % of control | [15] 97 % of control

COC(=O)C1CC23C=CCN4CC(C2C)C2(c5ccccc5NC12)C43 (stereo not drawn)
inactive: endpoint: mean survival time, dose: 8.0 mg/kg/injection, schedule: Q01DX001 (ip), vehicle: saline 102 % of control | endpoint: mean survival time, dose: 16.0 mg/kg/injection, schedule: Q01DX001 (ip), vehicle: saline 96 % of control | endpoint: mean survival time, dose: 32.0 mg/kg/injection, schedule: Q01DX001 (ip), vehicle: saline 102 % of control | endpoint: mean survival time, dose: 64.0 mg/kg/injection, schedule: Q01DX001 (ip), vehicle: saline 101 % of control

O=c1oc(-c2cccc([N+](=O)[O-])c2)nc2ccccc12
inactive: [12] 100 % of control | [14] 88 % of control

CCCC(P(=O)(c1ccccc1)c1ccccc1)[P+](CC)(c1ccccc1)c1ccccc1 (stereo not drawn)
inactive: endpoint: mean survival time, dose: 6.25 mg/kg/injection, schedule: Q04DX002 (ip), vehicle: saline with Tween-80 100 % of control | endpoint: mean survival time, dose: 12.5 mg/kg/injection, schedule: Q04DX002 (ip), vehicle: saline with Tween-80 96 % of control | endpoint: mean survival time, dose: 25.0 mg/kg/injection, schedule: Q04DX002 (ip), vehicle: saline with Tween-80 92 % of control

COc1c(CBr)c(CBr)c(OC)c2ccccc12
inactive: [12] 101 % of control | [14] 100 % of control | [15] 101 % of control

NC(CC(=O)c1cccc2oc3cc(=O)c4[nH]c(C(=O)O)cc(=O)c4c-3nc12)C(=O)O (stereo not drawn)
inactive: endpoint: mean survival time, dose: 50.0 mg/kg/injection, schedule: Q01DX001 (ip), vehicle: carboxymethylcellulose (CMC) 98 % of control | endpoint: mean survival time, dose: 100.0 mg/kg/injection, schedule: Q01DX001 (ip), vehicle: carboxymethylcellulose (CMC) 95 % of control | endpoint: mean survival time, dose: 200.0 mg/kg/injection, schedule: Q01DX001 (ip), vehicle: carboxymethylcellulose (CMC) 95 % of control | endpoint: mean survival time, dose: 400.0 mg/kg/injection, schedule: Q01DX001 (ip), vehicle: carboxymethylcellulose (CMC) 101 % of control

CCCCCCCCOCCOCCOCCOCCOCCCCCCCC
inactive: [16] 102 % of control | [17] 98 % of control | [18] 102 % of control

OCC1C(CO)C2CC1C1N=NN(c3ccccc3)C21 (stereo not drawn)
inactive: endpoint: mean survival time, dose: 100.0 mg/kg/injection, schedule: Q01DX001 (ip), vehicle: saline sonified 102 % of control | endpoint: mean survival time, dose: 200.0 mg/kg/injection, schedule: Q01DX001 (ip), vehicle: saline sonified 100 % of control | endpoint: mean survival time, dose: 400.0 mg/kg/injection, schedule: Q01DX001 (ip), vehicle: saline sonified 100 % of control

O=C1CC(=Nc2ccc([N+](=O)[O-])cc2)NN1c1c(Cl)cc(Cl)cc1Cl
inactive: [12] 101 % of control | [14] 97 % of control | [15] 97 % of control

N=C(N)c1cccc(NC(=O)CCc2ccccc2)c1
inactive: endpoint: mean survival time, dose: 100.0 mg/kg/injection, schedule: Q01DX001 (ip), vehicle: saline with Tween-80 97 % of control | endpoint: mean survival time, dose: 200.0 mg/kg/injection, schedule: Q01DX001 (ip), vehicle: saline with Tween-80 93 % of control | endpoint: mean survival time, dose: 400.0 mg/kg/injection, schedule: Q01DX001 (ip), vehicle: saline with Tween-80 92 % of control

CCCCCCCC/C=C\CCCCCCCC(=O)OCCCCCC
inactive: [16] 91 % of control | [17] 102 % of control | [18] 95 % of control

O=C1C=C(c2ccccc2)C(c2ccccc2)C(c2ccccc2)C1 (stereo not drawn)
inactive: [11] 93 % of control | [13] 93 % of control | [19] 96 % of control

NNc1ncnc2c1cnn2C1OC(CO)C(O)C1O (stereo not drawn)
inactive: endpoint: mean survival time, dose: 12.5 mg/kg/injection, schedule: Q01DX009 (ip), vehicle: other 103 % of control | [7] 103 % of control | [8] 103 % of control | [9] 110 % of control | endpoint: mean survival time, dose: 200.0 mg/kg/injection, schedule: Q01DX009 (ip), vehicle: other 112 % of control | endpoint: mean survival time, dose: 400.0 mg/kg/injection, schedule: Q01DX009 (ip), vehicle: other 89 % of control

Cc1ccc(/C=N/NC(=O)CNC(=O)Nc2cccc([N+](=O)[O-])c2)cc1
inactive: [10] 92 % of control | [11] 88 % of control

COP(=O)(O)OCC1OC(n2cnc3c(N)ncnc32)C(O)C1O (stereo not drawn)
inactive: [20] 96 % of control | [21] 102 % of control | [22] 106 % of control | [23] 100 % of control | endpoint: mean survival time, dose: 200.0 mg/kg/injection, schedule: Q01DX005 (ip), vehicle: distilled water + Tween-80 106 % of control

O=C(O)/C(=C\c1ccccc1)NC(=O)c1ccccc1
inactive: [11] 95 % of control | [13] 96 % of control | [19] 105 % of control

CC1=C[P+](c2ccccc2)(c2ccccc2)C=C(c2ccccc2)O1
inactive: endpoint: median survival time, dose: 1.25 mg/kg/injection, schedule: Q01DX009 (ip), vehicle: suspension in saline 108 % of control | endpoint: median survival time, dose: 2.5 mg/kg/injection, schedule: Q01DX009 (ip), vehicle: suspension in saline 111 % of control | endpoint: median survival time, dose: 5.0 mg/kg/injection, schedule: Q01DX009 (ip), vehicle: suspension in saline 113 % of control | endpoint: median survival time, dose: 10.0 mg/kg/injection, schedule: Q01DX009 (ip), vehicle: suspension in saline 123 % of control | endpoint: median survival time, dose: 20.0 mg/kg/injection, schedule: Q01DX009 (ip), vehicle: suspension in saline 104 % of control

CC1=NN(c2ccc(S(=O)(=O)O)cc2)C(=O)C1
inactive: [11] 93 % of control | [12] 96 % of control | [13] 87 % of control | [14] 104 % of control | [15] 98 % of control

COc1ccc(Nc2nc(N)nc3c2ncn3C2OC(CO)C(O)C2O)cc1 (stereo not drawn)
inactive: [20] 96 % of control | [21] 98 % of control | [22] 104 % of control | [23] 111 % of control

NCc1ncn[nH]1
inactive: [4] 100 % of control | [5] 96 % of control

O=[N+]([O-])C/C=C(/C=Nc1ccc(Cl)cc1)[N+](=O)[O-]
inactive: [1] 101 % of control | [4] 105 % of control | [2] 102 % of control | [5] 97 % of control | [3] 96 % of control | [6] 97 % of control
